Biological target: T1, human recombinant mGluR5 (Homo sapiens, UniProt P41594)
T1 construct: expressed in transfected cells; host or cells: HEK 293
Assay: positive modulation of mGluR5, calcium based FLIPR assay
Settings: HEK 293 cell line expressing human recombinant mGluR5; EC50 of the modulation from peak Ca fluorescence signal after glutamate at approx. 5% basal stimulation
Experimental: The positive modulation of mGluR5 is measured in a HEK 293 cell line expressing human recombinant mGluR5 and is detected with calcium based FLIPR assay. The cells are cultured with DMEM supplemented with 10% FCS, 2 μg/mL tetracycline, 100 μg/mL hygromycin and 500 μg/mL geneticin. The cell culture media is exchanged for tetracycline-free cell culture media 3-7 days before the assay. One day before the assay the cell culture medium is exchanged to DMEM without glutamine and phenol red and supplemented with 10% FCS, 100 μg/mL hygromycin and 500 μg/mL geneticin. On the assay day, the medium of the subconfluent cultures is removed and the cells are detached by addition of 2.5 ml EDTA (0.02%) per 175 cm2 culture flask for 1 minute. The cells are resuspend in Ringer solution (140 mM NaCl, 5 mM KCl, 2.5 mM CaCl2, 1.5 mM MgCl2, 5 mM Glucose, 10 mM Hepes; adjusted to pH 7.4 with NaOH), pooled and Ringer solution added to adjust the volume to 50 mL. The cell suspension is centrifuged for […] at 1500 U/min (425 g). The supernatant is removed and the cells washed a second time with 50 ml fresh Ringer solution and centrifuged again as before. The supernatant is again removed and the pellet resuspended in Ringer solution to 1,000,000 cells/ml (1×10^6 cells/mL). The cells are plated onto BD BioCoat Poly-D-Lysine 384 well plates (20.000 cells/well; 20 μl/well). The lid covered plates are then incubated until use at 37° C./10% CO2. For dye loading, 20 μl of Calcium-4 assay kit solution (prepared according to the manufacturer's description in Ringer solution) are added to the cells and the plates are incubated for […] 37° C. and then […] at room temperature.
Controls, Compound Dilution and Assay Execution:
Each assay plate contained wells with “high” and “low” controls:
Low controls 1% DMSO/ringer solution+basal glutamate activation (defined as 100% CTL).
High controls 10 μM CDPPB+basal glutamate activation (defined as 200% CTL).
Test compounds are dissolved and diluted in DMSO to 100-fold the desired concentrations. In a second step, the compounds are diluted in Ringer solution such that the compounds are 4-fold more concentrated than the desired final assay concentration. The final DMSO concentration was 1%.
20 μl of each compound solution are then transferred to the assay plate and the Ca2+ kinetic is measured to determine any intrinsic compound activity. After 5 mM incubation in the FLIPR device, the second stimulation with 20 μl of glutamate in Ringer solution (glutamate concentration adjusted to approximately 5% basal stimulation of the maximal possible glutamate effect) is added and the kinetic Ca2+ response of the wells was measured for the modulation effect.
The peak height of the Ca release related fluorescence signal (9-66) is used for the EC50. The EC50 of the modulation is calculated over a nonlinear regression with GraphPad Prism (Table 1).

T1 sequence (P41594 21-1212): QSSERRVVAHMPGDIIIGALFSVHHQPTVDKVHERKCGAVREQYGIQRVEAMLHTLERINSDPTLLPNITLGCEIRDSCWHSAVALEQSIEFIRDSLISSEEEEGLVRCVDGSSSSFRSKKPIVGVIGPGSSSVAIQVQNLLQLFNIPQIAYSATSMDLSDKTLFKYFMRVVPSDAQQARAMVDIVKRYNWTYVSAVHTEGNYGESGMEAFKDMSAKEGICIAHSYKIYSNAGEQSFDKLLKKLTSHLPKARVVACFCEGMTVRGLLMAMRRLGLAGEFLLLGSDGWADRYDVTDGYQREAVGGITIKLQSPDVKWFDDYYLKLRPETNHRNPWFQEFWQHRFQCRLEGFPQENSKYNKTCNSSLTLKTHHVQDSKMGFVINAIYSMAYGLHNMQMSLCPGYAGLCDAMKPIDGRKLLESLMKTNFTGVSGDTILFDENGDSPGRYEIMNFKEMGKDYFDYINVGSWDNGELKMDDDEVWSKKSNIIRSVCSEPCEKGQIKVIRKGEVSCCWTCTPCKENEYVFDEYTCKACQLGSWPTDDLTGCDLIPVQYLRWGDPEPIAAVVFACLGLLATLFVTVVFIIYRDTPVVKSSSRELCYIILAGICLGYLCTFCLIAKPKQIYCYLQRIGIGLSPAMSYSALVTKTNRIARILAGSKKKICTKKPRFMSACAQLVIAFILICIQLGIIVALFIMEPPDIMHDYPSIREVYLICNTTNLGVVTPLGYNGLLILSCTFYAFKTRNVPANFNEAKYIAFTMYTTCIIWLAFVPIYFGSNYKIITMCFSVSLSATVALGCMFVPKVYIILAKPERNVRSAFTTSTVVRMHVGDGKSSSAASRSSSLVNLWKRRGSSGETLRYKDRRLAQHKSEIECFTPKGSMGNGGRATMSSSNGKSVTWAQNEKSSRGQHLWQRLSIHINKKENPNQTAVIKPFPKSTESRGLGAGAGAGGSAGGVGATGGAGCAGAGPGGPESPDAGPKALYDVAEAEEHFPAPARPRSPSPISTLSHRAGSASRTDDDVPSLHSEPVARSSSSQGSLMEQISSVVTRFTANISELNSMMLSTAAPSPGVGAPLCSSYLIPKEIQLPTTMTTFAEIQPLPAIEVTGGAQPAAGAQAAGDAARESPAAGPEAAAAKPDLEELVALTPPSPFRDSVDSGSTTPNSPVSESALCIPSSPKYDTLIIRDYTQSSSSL

Row | EC50 [nM] | Compound
1 | 148 | CCc1cc(-c2ccc(F)c(C)c2)nn1CC(=O)N1Cc2nc(C)sc2C1 [Example 7.02.025]
2 | 83 | CCc1cc(-c2ccc(F)c(C)c2)nn1CC(=O)N1CCc2nc(N)sc2CC1 [Example 7.02.026]
3 | 58 | CCc1cc(-c2ccc(F)c(C)c2)nn1CC(=O)N1CCN(c2cccc(OC)c2)C(=O)C1 [Example 7.02.027]
4 | 943 | CCc1cc(-c2ccc(F)cc2)nn1CC(=O)N1CCN(c2cccc(OC)c2)C(=O)C1 [Example 7.02.028]
5 | 329 | CCc1cc(-c2ccc(F)cc2)nn1CC(=O)N1CCc2nc(C)sc2CC1 [Example 7.02.029]
6 | 1760 | CCc1cc(-c2ccc(F)cc2)nn1CC(=O)N1CCc2nc(N)sc2CC1 [Example 7.02.030]
7 | 1240 | CCc1cc(-c2ccc(F)cc2)nn1CC(=O)N1Cc2nc(C)sc2C1 [Example 7.02.031]
8 | 37 | CCCc1cc(-c2ccc(F)c(C)c2)nn1CC(=O)N1CCN(c2cccc(OC)c2)C(=O)C1 [Example 7.02.032]
9 | 29 | CCCc1cc(-c2ccc(F)c(C)c2)nn1CC(=O)N1CCc2nc(N)sc2CC1 [Example 7.02.033]
10 | 42 | CCCc1cc(-c2ccc(F)c(C)c2)nn1CC(=O)N1Cc2nc(C)sc2C1 [Example 7.02.034]
11 | 35 | Cc1nc2c(s1)CCN(C(=O)Cn1nc(-c3ccc(F)c(C)c3)cc1C1CC1)CC2 [Example 7.02.035]
12 | 136 | Cc1cc(-c2cc(C3CC3)n(CC(=O)N3CCc4nc(N)sc4CC3)n2)ccc1F [Example 7.02.036]
13 | 194 | CNc1nc2c(s1)CCN(C(=O)Cn1nc(-c3ccc(F)c(C)c3)cc1C1CC1)CC2 [Example 7.02.037]
14 | 210 | COc1ccc(-c2cc(C(C)C)n(CC(=O)N3CCc4nc(N)sc4CC3)n2)cc1 [Example 7.02.038]
15 | 915 | COc1ccc(-c2cc(C(C)C)n(CC(=O)N3CCc4cc(OC)ccc4C3)n2)cc1 [Example 7.02.039]
16 | 1700 | COc1ccc(-c2cc(C(C)C)n(CC(=O)N3Cc4ccc(OC)cc4C3)n2)cc1 [Example 7.02.040]
17 | 1220 | COc1ccc(-c2cc(C(C)C)n(CC(=O)N3CCN(c4cccc(OC)c4)C(=O)C3)n2)cc1 [Example 7.02.041]
18 | 192 | COc1ccc(-c2cc(C(C)C)n(CC(=O)N3CCc4nc(N)sc4CC3)n2)cc1 [Example 7.02.042]
19 | 1740 | COc1ccc(-c2cc(C(C)C)n(CC(=O)N3CCc4nc(C)oc4C3)n2)cc1 [Example 7.02.043]
20 | 735 | COc1ccc(-c2cc(C(C)C)n(CC(=O)N3CCc4ccc(OC)cc4CC3)n2)cc1 [Example 7.02.044]
21 | 1410 | COc1ccc(-c2cc(C(C)C)n(CC(=O)N3Cc4nc(C)sc4C3)n2)cc1 [Example 7.02.045]

Row | EC50 [nM] | Compound
22 | 881 | COc1ccc(-c2cc(C(C)C)n(CC(=O)N3CCc4nc(N)sc4CC3)n2)cc1C [Example 7.02.046]
23 | 221 | COc1ccc(-c2cc(C(C)C)n(CC(=O)N3CCc4nc(C)sc4CC3)n2)cc1C [Example 7.02.047]
24 | 31 | Cc1nc2c(s1)CCN(C(=O)Cn1nc(-c3ccc(F)c(C)c3)cc1C1CCCCC1)CC2 [Example 7.02.048]
25 | 157 | CNc1nc2c(s1)CCN(C(=O)Cn1nc(-c3ccc(F)c(C)c3)cc1C1CCCCC1)CC2 [Example 7.02.049]
26 | 183 | Cc1cc(-c2cc(C3CCCCC3)n(CC(=O)N3CCc4nc(N)sc4CC3)n2)ccc1F [Example 7.02.050]
27 | 190 | COc1cc(-c2cc(C(C)C)n(CC(=O)N3CCc4nc(C)sc4CC3)n2)ccc1F [Example 7.02.051]
28 | 297 | COc1cccc(-c2cc(C3CCCCC3)n(CC(=O)N3CCc4nc(N)sc4CC3)n2)c1 [Example 7.02.052]
29 | 552 | COc1cccc(-c2cc(C3CCCCC3)n(CC(=O)N3CCN(c4cccc(OC)c4)C(=O)C3)n2)c1 [Example 7.02.053]
30 | 186 | Cc1cc(-c2cc(C(C)C)n(CC(=O)N3CCc4nc(N)sc4CC3)n2)ccc1F [Example 7.02.054]
31 | 42 | Cc1nc2c(s1)CCN(C(=O)Cn1nc(-c3ccc(F)c(C)c3)cc1C(C)C)CC2 [Example 7.02.055]
32 | 245 | Cc1nc2c(s1)CCN(C(=O)Cn1nc(-c3ccc(F)cn3)cc1-c1ccccc1)CC2 [Example 7.02.056]
33 | 913 | Cc1nc2c(s1)CN(C(=O)Cn1nc(-c3ccc(F)cn3)cc1-c1ccccc1)C2 [Example 7.02.057]
34 | 750 | Nc1nc2c(s1)CCN(C(=O)Cn1nc(-c3ccc(F)cn3)cc1-c1ccccc1)CC2 [Example 7.02.058]
35 | 287 | Cc1nc2c(s1)CN(C(=O)Cn1nc(-c3ccc(F)cn3)cc1-c1ccc(F)cc1)C2 [Example 7.02.059]
36 | 760 | Nc1nc2c(s1)CCN(C(=O)Cn1nc(-c3ccc(F)cn3)cc1-c1ccc(F)cc1)CC2 [Example 7.02.060]
37 | 96 | Cc1nc2c(s1)CCN(C(=O)Cn1nc(-c3ccc(F)cn3)cc1-c1ccc(F)cc1)CC2 [Example 7.02.061]
38 | 323 | COc1cc(-c2cc(C(C)C)n(CC(=O)N3CCc4nc(N)sc4CC3)n2)ccc1F [Example 7.02.062]
39 | 1730 | O=C(Cn1nc(-c2ccccc2)cc1-c1ccccc1)N1CCN(Cc2ccccc2)C(=O)C1 [Example 7.02.063]
40 | 177 | COc1cccc(N2CCN(C(=O)Cn3nc(-c4cc(C)c(C)cn4)cc3-c3ccccc3)CC2=O)c1 [Example 7.02.064]
41 | 194 | CCc1cccc(-c2cc(CC)n(CC(=O)N3CCN(c4cccc(OC)c4)C(=O)C3)n2)c1 [Example 7.02.065]
42 | 24 | CCc1cc(-c2ccc(F)c(C)c2)nn1CC(=O)N1CCc2nc(C)oc2CC1 [Example 7.02.066]

Row | EC50 [nM] | Compound
43 | 6 | CCCc1cc(-c2ccc(F)c(C)c2)nn1CC(=O)N1CCc2nc(C)sc2CC1 [Example 7.02.067]
44 | 199 | CCCc1cc(-c2ccc(F)c(C)c2)nn1CC(=O)N1CCC(c2cc(OC)ncn2)CC1 [Example 7.02.068]
45 | 187 | CCCc1cc(-c2ccc(F)c(C)c2)nn1CC(=O)N1CCC(c2ncc(OC)cn2)CC1 [Example 7.02.069]
46 | 40 | CCCc1cc(-c2ccc(F)c(C)c2)nn1CC(=O)N1CC=C(c2cc(OC)ncn2)CC1 [Example 7.02.070]
47 | 71 | CCCc1cc(-c2ccc(F)c(C)c2)nn1CC(=O)N1CC=C(c2ncc(OC)cn2)CC1 [Example 7.02.071]
48 | 251 | Cc1nc2c(s1)CCN(C(=O)Cn1nc(-c3ccc(F)cc3)cc1C(C)C)CC2 [Example 7.02.072]
49 | 627 | CC(C)c1cc(-c2ccc(F)cc2)nn1CC(=O)N1CCc2nc(N)sc2CC1 [Example 7.02.073]
50 | 171 | CCc1cc(-c2ccc(C)c(C)c2)nn1CC(=O)N1CCc2nc(N)sc2CC1 [Example 7.02.074]
51 | 318 | CCc1cc(-c2ccc(C)c(C)c2)nn1CC(=O)N1Cc2nc(C)sc2C1 [Example 7.02.075]
52 | 293 | CCc1cc(-c2ccc(C)c(C)c2)nn1CC(=O)N1CC=C(c2ncc(OC)cn2)CC1 [Example 7.02.076]
53 | 1800 | CCc1cc(-c2ccc(C)c(C)c2)nn1CC(=O)N1CCC(c2ncc(OC)cn2)CC1 [Example 7.02.077]
54 | 232 | CCc1cc(-c2ccc(C)c(C)c2)nn1CC(=O)N1CC=C(c2cc(OC)ncn2)CC1 [Example 7.02.078]
55 | 182 | CCc1cc(-c2cccc(C)c2)nn1CC(=O)N1CCc2nc(N)sc2CC1 [Example 7.02.079]
56 | 321 | CCc1cc(-c2cccc(C)c2)nn1CC(=O)N1Cc2nc(C)sc2C1 [Example 7.02.080]
57 | 991 | CCc1cc(-c2cccc(C)c2)nn1CC(=O)N1CCC(c2ncc(OC)cn2)CC1 [Example 7.02.081]
58 | 291 | CCc1cc(-c2cccc(C)c2)nn1CC(=O)N1CC=C(c2ncc(OC)cn2)CC1 [Example 7.02.082]
59 | 35 | CCc1cc(-c2ccc(C)c(C)c2)nn1CC(=O)N1CCc2nc(C)sc2CC1 [Example 7.02.083]
60 | 73 | CCc1cc(-c2cccc(C)c2)nn1CC(=O)N1CCc2nc(C)sc2CC1 [Example 7.02.084]
61 | 42 | Cc1nnc(C2CCN(C(=O)Cn3nc(-c4ccc(C)c(C)c4)cc3-c3ccccc3)CC2)o1 [Example 7.02.085]
62 | 11 | Cc1nc2c(s1)CCN(C(=O)Cn1nc(-c3ccc(C)c(C)c3)cc1-c1ccccc1)CC2 [Example 7.02.086]

Source: US8741892B2, “Compounds” (Boehringer Ingelheim International GmbH, priority 2011, dated 2014)
